Publication PMC9399069, “Imaging PARP with [^18F]rucaparib in pancreatic cancer models” (European Journal of Nuclear Medicine and Molecular Imaging, 2022)

Assays:
AsPC1 cells [1] = assay: Protein expression by flow cytometry after PARP inhibitors or DNA-damaging reagents, AsPC1 cells; type: cell-based, human; conditions: 3 h
Protocol: (§1) Relative expression of PARP1, 2 and 3, ALDH2 and IMPDH2 was determined by flow cytometry. Cells (1 × 10^6 cells/well) were seeded in 96-well plates in growth medium, washed with FACS buffer (PBS, 2% FBS, 1 mM EDTA, 0.1% NaN3) and centrifuged at 500×g for 5 min. Immunostaining was performed using the Foxp3/transcription factor staining buffer set (eBioscience^TM, USA). Intracellular staining was conducted in permeabilisation buffer for 30 min at 4 °C in the dark using the following antibodies: AF488-conjugated anti-PARP-1 (1:100; sc-80070), AF594-conjugated anti-PARP-2 (1:100; sc-393310), anti-PARP-3 (1:100; sc-390771) or anti-PARP-tankyrase-1/2 (1:100; sc-365897) from Santa Cruz Biotechnology Inc. (USA), AF488-conjugated anti-IMPDH2 (1:500; ab-200770) from Abcam plc. (UK) and AF488-conjugated anti-ALDH2 (1:100, ABIN6817568) from Antibodies-online GmbH (UK). Fixable viability dye ef780 (1:4000; eBioscience^TM; 65-0865-14) was used for live and dead cells discrimination. Fixation of immunostained cells was performed for 15 min at room temperature. Flow cytometry was conducted on the CytoFLEX benchtop flow cytometer (Beckman Coulter, USA), with appropriate lasers and filters, positive and negative controls. Data were analysed using FlowJo^TM (Tree Star Inc., BD Biosciences, USA).
(§2) AsPC1 (1 × 10^5 cells/well) and PSN1 cells (7.5 × 10^4 cells/well) were exposed to methyl methanesulfonate (MMS) or temozolomide (TMZ) (100 μM, in a total of 270 μL growth medium) for 3 h at 37 °C. Additionally, [^18F]rucaparib (500 kBq, 3.6 GBq/μmol; [^TotalF]rucaparib final concentration: 301 nM) or [^18F]olaparib (400 kBq, 8.5 GBq/μmol; [^TotalF]olaparib final concentration: 300 nM) was added, and the cells were incubated at 37 °C for 30 min. Cell culture medium was removed, and cells were washed with PBS. For cell retention, fresh medium (300 μL) was added to the cells. Cells were then further incubated at 37°C for 3 h. Cell culture medium was removed, and the amount of ^18F in the cell lysates was measured as above. Protein expression of the cells after DNA-damaging treatments (or PARP inhibitors 10 μM) was performed using flow cytometry as above.

PSN1 cells [2] = assay: Protein expression by flow cytometry after PARP inhibitors or DNA-damaging reagents, PSN1 cells; type: cell-based, human; conditions: 3 h
Protocol: as §1, §2

AsPC1 cells [3] = assay: Uptake and retention of radiolabelled PARP inhibitors in AsPC1 cells treated with DNA-damaging reagents; type: cell-based, human; conditions: 100 μM, 3 h, retention at 3 h
Protocol: as §2

PSN1 cells [4] = assay: Uptake and retention of radiolabelled PARP inhibitors in PSN1 cells treated with DNA-damaging reagents; type: cell-based, human; conditions: 100 μM, 3 h, retention at 3 h
Protocol: as §2

breast cancer xenografts = system: breast cancer xenografts; design: method as in PMID 27841728, PMID 27069769; conditions: 1 h post-injection; cited from earlier work
[5] = design: method as in PMID 25895168, PMID 26337803, PMID 27689533; conditions: relatively low tumour uptake; cited from earlier work
PSN1 xenografts [6] = system: PSN1 xenografts; design: method as in PMID 30389822; conditions: cited from earlier work
AsPC1 cells [7] = assay: Cell retention of [18F]rucaparib and [18F]olaparib in AsPC1 cells; type: cell-based, human; conditions: for Efflux: fraction exiting cells: in the first 10–30 min, biphasic efflux
Protocol: (§3) AsPC1 (1 × 10^5 cells/well) and PSN1 cells (7.5 × 10^4 cells/well) were exposed to [^18F]rucaparib (100 kBq, 4.8 GBq/μmol; [^TotalF]rucaparib final concentration: 258 nM) or [^18F]olaparib (400 kBq, 2.8 GBq/μmol: [^TotalF]olaparib final concentration: 242 nM) in 24-well plates at 37 °C for 30 min. Cell culture medium was removed, and cells were washed with PBS, followed by the addition of fresh medium (300 μL). Cells were then further incubated at 37 °C. Cell culture medium was removed, and cells were washed with PBS at different times (0–3 h). Cells were lysed using RIPA buffer for 15 min at room temperature, and the amount of ^18F in the cell lysates was measured as above.

PSN1 cells [8] = assay: Cell retention of [18F]rucaparib and [18F]olaparib in PSN1 cells; type: cell-based, human; conditions: for Efflux: fraction exiting cells: in the first 10–30 min, biphasic efflux
Protocol: as §3

PSN1 xenografts [9] = assay: Autoradiography of PSN1 tumour sections; type: in vivo, Balb/c nu/nu mice; conditions: unlabelled drug 0.5 mg co-administered
Protocol: Ex vivo localisation of [^18F]rucaparib in PSN1 xenografts was determined using autoradiography of tumour sections (10 μm). Uptake in the same tumour sections was compared to immunohistochemistry staining for PARP1, 2 and 3. Full details of procedures and protocols are provided in Supplemental Information.
PSN1 xenograft tissues were harvested and immediately flash-frozen using liquid nitrogen, and sectioned (10 µm) using a Leica CM1950 cryostat. Tissue sections were thaw-mounted onto Superfrost PLUS glass microscope slides (Menzel-Glaser, Thermo Scientific) and allowed to dry briefly at room temperature (RT). The slides were then fixed in 10% neutral buffered formalin […] (NBF) for 10 min at RT, dried, and exposed to a storage phosphor screen (PerkinElmer, Super Resolution, 12.5 x 25.2 cm) in a standard X-ray cassette for 15 h at 4 °C. The phosphor screen was then imaged using a Cyclone® Plus Storage Phosphor System (PerkinElmer).

SW620 cells = system: SW620 cells; design: method as in PMID 24556618; conditions: cited from earlier work
[10] = design: method as in PMID 24216281, PMID 26438157; conditions: 10 mg/kg, administered orally or intraperitoneally; cited from earlier work
pancreatic cancer = conditions: phase II, pancreatic cancer patients with BRCA1/2 and PALB2 variants; cited from earlier work

Cn1nnc2c(C(N)=O)ncn2c1=O [TMZ, temozolomide]
Upregulation of PARP proteins (AsPC1 cells [1]; 100 μM, flow cytometry): < 10% | γH2AX expression (AsPC1 cells [1]; 100 μM, not statistically significant in AsPC1 cells): increasing trend | γH2AX expression (PSN1 cells [2]; 100 μM): increasing trend | Upregulation of PARP proteins (PSN1 cells [2]; 100 μM, flow cytometry): < 10% | Cell association and retention of [TotalF]rucaparib and [TotalF]olaparib after exposure to DNA-damaging reagent (AsPC1 cells [3]): increased | Cell association and retention of [TotalF]rucaparib and [TotalF]olaparib after exposure to DNA-damaging reagent (PSN1 cells [4]): increased

O=C1NCCn2c(-c3ccc(OCC[18F])cc3)nc3cccc1c32 [[^18F]FTT]
Tumour-to-muscle (T/M) ratio (breast cancer xenografts): 1.2–1.9

CC1=CC(C)=[N+]2C1=Cc1ccc(CCC(=O)N3CCN(C(=O)c4cc(Cc5n[nH]c(=O)c6ccccc56)ccc4F)CC3)n1[B-]2(F)[18F] (centres unmarked) [[^18F]PARPi-FL]
Tumour uptake [5]: < 1 %ID/g

O=C(c1cc(Cc2n[nH]c(=O)c3ccccc23)ccc1[18F])N1CCN(C(=O)C2CC2)CC1 [[^18F]olaparib]
Tumour uptake (PSN1 xenografts [6]; PSN1 xenografts, 1 h post-injection): 3.16 ± 0.36 %ID/g | Weighted blood half-life (PSN1 xenografts [6]; same xenograft mice): 32.3 min

O=C(c1cc(Cc2n[nH]c(=O)c3ccccc23)ccc1F)N1CCN(C(=O)C2CC2)CC1 [olaparib]
Efflux: fraction exiting cells (AsPC1 cells [7]): more than 50% | Efflux: fraction exiting cells (PSN1 cells [8]): more than 50% | 18F signal of [18F]rucaparib in tumour sections from treated tumours (PSN1 xenografts [9]): significantly reduced

CNCc1ccc(-c2[nH]c3cc(F)cc4c3c2CCNC4=O)cc1 [rucaparib]
Weighted cellular efflux half-life (AsPC1 cells [7]): 49.9 ± 6.8 min | Efflux: fraction exiting cells (AsPC1 cells [7]): more than 50% | Weighted cellular efflux half-life (PSN1 cells [8]): 43.9 ± 3.2 min | Efflux: fraction exiting cells (PSN1 cells [8]): more than 50% | PARP1 expression (MFI) after exposure of PARP inhibitors (AsPC1 cells [1]; 10 μM, flow cytometry): upregulated | PARP1 expression (MFI) after exposure of PARP inhibitors (PSN1 cells [2]; 10 μM, flow cytometry): upregulated | 18F signal of [18F]rucaparib in tumour sections from treated tumours (PSN1 xenografts [9]): significantly reduced | Cellular efflux half-life (SW620 cells): 20 min | Blood half-life [10]: 84 to 90 min | Fraction of patients who benefited from treatment (pancreatic cancer): two-thirds
